Several values for one entry are separate records, joined by “and”; a condition that tells them apart may be missing. Equal values may be shown once. Inconclusive results and toxic doses are left out.
System: CD2F1 mice, L1210 leukemia ip, survival T/C
Experiment: NCI In Vivo Anticancer Drug Screen. Data for tumor model L1210 Leukemia (intraperitoneal) in CD2F1 (CDF1) mice
Settings: endpoint: mean survival time, higher = longer survival
Method in brief: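 In this screen, transplantable tumors were grown in mice given either the compound or its vehicle. Results were expressed as the treated measurement relative to the control measurement.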

[1] = dose: 100.0 mg/kg/injection, schedule: Q01DX001 (ip), vehicle: saline with Tween-80
[2] = dose: 100.0 mg/kg/injection, schedule: Q01DX009 (ip), vehicle: saline with Tween-80
[3] = dose: 200.0 mg/kg/injection, schedule: Q01DX001 (ip), vehicle: saline with Tween-80
[4] = dose: 200.0 mg/kg/injection, schedule: Q01DX009 (ip), vehicle: saline with Tween-80
[5] = dose: 400.0 mg/kg/injection, schedule: Q01DX001 (ip), vehicle: saline with Tween-80
[6] = dose: 400.0 mg/kg/injection, schedule: Q01DX009 (ip), vehicle: saline with Tween-80
[7] = dose: 100.0 mg/kg/injection, schedule: Q04DX003 (ip), vehicle: saline with Tween-80

For `CCOC(=O)CC1(C)C(=O)NC(=O)N1C(C)=O` (stereo unspecified), which T/C [1] is on record?
The T/C was 105 % of control.

What about the T/C [2] of the same compound?
Its T/C is 103 % of control.

What about the T/C [3] of the same compound?
Its T/C is 97 % of control.

What about the T/C [4] of the same compound?
Its T/C is 103 % of control.

And the T/C [5]?
The T/C was 94 % of control.

What about the T/C [6] of the same compound?
Its T/C is 116 % of control.

What does the source list for `Nc1c(Cl)cccc1Cl` (tested in a mixture with another compound)?
T/C [1]: 89 % of control; T/C [2]: 99 % of control; T/C [3]: 91 % of control; T/C [4]: 98 % of control; T/C [5]: 91 % of control; T/C [6]: 107 % of control

With `O=C(Cl)C12CC3CC(CC(C3)C1)C2` as the compound, how does the T/C (dose: 12.5 mg/kg/injection, schedule: Q01DX009 (ip), vehicle: other) read?
Its T/C is 94 % of control.

What about the T/C (dose: 25.0 mg/kg/injection, schedule: Q01DX009 (ip), vehicle: other) of the same compound?
The T/C was 94 % of control.

And the T/C (dose: 50.0 mg/kg/injection, schedule: Q01DX009 (ip), vehicle: other)?
Its T/C is 91 % of control.

What about the T/C (dose: 100.0 mg/kg/injection, schedule: Q01DX009 (ip), vehicle: other) of the same compound?
The T/C was 91 % of control.

For `CC1=C(N2CC2)C(=O)C2=C(C1=O)N1CC3C(N3C)C1(O)C2COC(N)=O` (stereo unspecified), which T/C (dose: 3.5 mg/kg/injection, schedule: Q01DX001 (ip), vehicle: carboxymethylcellulose (CMC)) is on record?
Its T/C is 122 % of control.

And the T/C (dose: 5.25 mg/kg/injection, schedule: Q01DX001 (ip), vehicle: carboxymethylcellulose (CMC))?
Its T/C is 151 % of control.

And the T/C (dose: 7.0 mg/kg/injection, schedule: Q01DX001 (ip), vehicle: carboxymethylcellulose (CMC))?
The T/C was 119 % of control.

What does the source list for `CCOC(=O)Nc1cc(N)c2ncc(-c3ccc(Cl)cc3)nc2n1`?
T/C [7]: 91 % of control; T/C (dose: 200.0 mg/kg/injection, schedule: Q04DX003 (ip), vehicle: saline with Tween-80): 91 % of control; T/C (dose: 400.0 mg/kg/injection, schedule: Q04DX003 (ip), vehicle: saline with Tween-80): 95 % of control

Which T/C (dose: 12.5 mg/kg/injection, schedule: Q01DX009 (ip), vehicle: saline with Tween-80) does the source give for `O=C(Nc1ccccc1)Oc1ccc(OCc2ccccc2)cc1` here?
The T/C was 94 % of control.

What about the T/C (dose: 25.0 mg/kg/injection, schedule: Q01DX009 (ip), vehicle: saline with Tween-80) of the same compound?
The T/C was 90 % of control.

What about the T/C (dose: 50.0 mg/kg/injection, schedule: Q01DX009 (ip), vehicle: saline with Tween-80) of the same compound?
Its T/C is 92 % of control.

How did the T/C (dose: 25.0 mg/kg/injection, schedule: Q04DX003 (ip), vehicle: saline with Tween-80) turn out when `[Cl][Fe]([Cl])([Cl])[Cl].c1ccc(-c2cc(-c3ccccc3)[o+]c(-c3ccccc3)c2)cc1` was run?
Its T/C is 87 % of control.

What about the T/C (dose: 50.0 mg/kg/injection, schedule: Q04DX003 (ip), vehicle: saline with Tween-80) of the same compound?
Its T/C is 87 % of control.

What about the T/C [7] of the same compound?
Its T/C is 86 % of control and 91 % of control.

How did the T/C (dose: 5.0 mg/kg/injection, schedule: Q01DX009 (ip), vehicle: saline with Tween-80) turn out when `CC(C)=CCC/C(C)=C/CNCCc1c[nH]c2ccccc12` was run?
Its T/C is 102 % of control.

What about the T/C (dose: 10.0 mg/kg/injection, schedule: Q01DX009 (ip), vehicle: saline with Tween-80) of the same compound?
Its T/C is 98 % of control.

What about the T/C (dose: 20.0 mg/kg/injection, schedule: Q01DX009 (ip), vehicle: saline with Tween-80) of the same compound?
The T/C was 100 % of control.

Source: PubChem BioAssay AID256 (DTP/NCI, 2004)
